Measured values from US8410150B2, “Inhibitors of carnitine palmitoyltransferase and treating cancer” (University Health Network, priority 2007, dated 2013).
Counter-ions that a name gives are not always drawn.

Biological target: T1, human CPT1A (Homo sapiens, UniProt P50416)
T1 construct: made in house; host or cells: Saccharomyces cerevisiae (pESC-trp) or cultured mammalian cells (pCDNA3.1); mitochondrial extract
T1 sequence (P50416 1-773): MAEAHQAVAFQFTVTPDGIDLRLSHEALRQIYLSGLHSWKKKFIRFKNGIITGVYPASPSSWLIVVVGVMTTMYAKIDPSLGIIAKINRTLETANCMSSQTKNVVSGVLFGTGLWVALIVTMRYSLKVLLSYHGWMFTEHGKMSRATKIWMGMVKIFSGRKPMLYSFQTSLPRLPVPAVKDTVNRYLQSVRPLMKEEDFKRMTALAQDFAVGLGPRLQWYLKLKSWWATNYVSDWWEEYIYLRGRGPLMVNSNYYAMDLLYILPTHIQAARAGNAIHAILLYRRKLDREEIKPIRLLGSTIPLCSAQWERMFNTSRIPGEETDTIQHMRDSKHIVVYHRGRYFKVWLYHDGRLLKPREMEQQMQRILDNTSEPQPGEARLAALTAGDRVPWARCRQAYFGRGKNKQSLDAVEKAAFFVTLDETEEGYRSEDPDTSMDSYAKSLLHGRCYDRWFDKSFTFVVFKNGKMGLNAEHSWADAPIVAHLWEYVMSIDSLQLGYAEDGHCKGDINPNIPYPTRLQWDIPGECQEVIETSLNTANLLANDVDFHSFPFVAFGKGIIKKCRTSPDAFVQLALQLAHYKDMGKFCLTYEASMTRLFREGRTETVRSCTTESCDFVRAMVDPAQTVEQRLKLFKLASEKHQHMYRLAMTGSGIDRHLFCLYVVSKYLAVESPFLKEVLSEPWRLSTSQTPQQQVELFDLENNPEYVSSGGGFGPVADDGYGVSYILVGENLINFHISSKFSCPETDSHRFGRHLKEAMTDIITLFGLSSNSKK
Assay: Human CPT1A LC/MS assay
Format: biochemical
Details: human CPT1A LC/MS assay, dose response format
Text: Nucleotide sequences encoding human CPT1 enzymes were individually cloned into the yeast expression vector pESC-trp at the Cla1 (5′ terminus) and Pac1 (3′ terminus) restriction sites by PCR amplification of the open reading frame using oligonucleotide primers designed to encode the wild-type CPT1 protein sequence. Standard molecular biology techniques were used to transform and express the CPT1 proteins in the yeast Saccharomyces cerevisiae. The yeast cells were lysed by enzymatic degradation of the cell wall by Zymolase, and the mitochondria were isolated by standard biochemical techniques. The integrity of the isolated mitochondria was monitored by determining the activity of succinate dehydrogenase in the mitochondrial preparations. The mitochondrial extracts were stored at −80° C. in buffer containing 10 mM HEPES pH 7.4 and 250 mM sucrose.
Human CPT1 (A, B, C) genes were additionally cloned into the pCDNA3.1 vector individually for expression in cultured mammalian cells. Cells expressing the exogenous CPT1A were identified and grown under standard conditions. Mammalian cells were harvested, and mitochondrial extracts prepared using standard biochemical methods. The mitochondrial extracts were stored at −80° C. in buffer containing 10 mM HEPES pH 7.4 and 250 mM sucrose.
Assays were performed in 96-well plate format. Each 100 μL reaction contained 40 mM KCl, 50 mM TrisHCl pH 7.5, and 250 mM mannitol (Assay Buffer), and 1.6 μg protein of an extract, 20 μM palmitoyl-CoA, 50 μM L-carnitine, and 10 ug/mL BSA. Reactions were incubated at room temperature and stopped after 10 minutes by extraction with 200 μL of water saturated n-butanol containing myristoyl carnitine (500 nM) as an internal standard. The samples were thoroughly mixed, and the phases separated by centrifugation. Samples were prepared for analysis with a 10 fold dilution of the n-butanol phase containing the reaction product palmitoyl carnitine into a 50:50 (acetonitrile:water) solvent for analysis. […] of prepared sample was separated on a Phenomenex Jupiter 5μ C4 reverse-phase column using an Agilent 1100 HPLC with a gradient from 50% acetonitrile (0.5% acetic acid) to 100% acetonitrile and quantified by detection with a Bruker Esquire 3000plus mass spectrometer. The abundance of the palmitoyl carnitine product was determined relative to the internal standard and the actual quantity of palmitoyl carnitine can be determined from a standard curve prepared using the n-butanol solution containing the internal standard.
Compounds were evaluated in two formats, a screening format, and a dose response format. The screening format was performed by adding 25 μL compound in 20% DMSO and Assay Buffer to 25 μL of extract containing […] and Assay Buffer, followed by a 10 minute incubation at room temperature. 50 μL of 40 μM palmitoyl-CoA in Assay Buffer was added to the reaction mixture, mixed and incubated for 10 minutes at room temperature. A negative control for activity was also performed where the carnitine was omitted from the reaction. A positive control for activity was also performed by omitting compound from the solution containing 20% DMSO and Assay Buffer. The reaction mixture was extracted and analyzed as described above. The inhibition by compound was determined by comparing the control relative activity to the relative activity observed in wells containing the compound. Relative activity was determined by subtracting the relative intensity (area palmitoyl carnitine/area myristoyl carnitine) observed in the negative control from the relative intensity observed in the experimental well, and dividing by the relative activity observed in the positive control.
[formula] Compound characterization by dose response format was performed using the above described assay conditions and a 16 point compound titration in 2 fold compound dilution steps. The DMSO concentration was kept constant at 20% (v/v) for all compound concentrations.

Question: `C[N+](C)(C)C[C@@H](CC(=O)O)NC(=O)c1ccc(CCc2ccsc2)o1` [Example S124, (R)-3-carboxy-N,N,N-trimethyl-2-(5-(2-(thiophen-3-yl)ethyl)furan-2-carboxamido)propan-1-aminium 2,2,2-trifluoroacetate] was tested. Which IC50 did it give?
Answer: ≤ 1 µM

Question: How did the IC50 turn out when `C[N+](C)(C)C[C@@H](CC(=O)[O-])NC(=O)Nc1cccc(Cc2ccccc2)c1` [Example S86, (R)-3-(3-(3-benzylphenyl)ureido)-4-(trimethylammonio)butanoate] was run?
Answer: 100 to 1000 µM

Question: `CCCCCCCCCCCCN(c1ccccc1)S(=O)(=O)N[C@H](CC(=O)[O-])C[N+](C)(C)C` [Example S32, (R)-3-(N-dodecyl-N-phenylsulfamoylamino)-4-(trimethylammonio)-butanoate] was tested. Which IC50 did it give?
Answer: 10 to 100 µM

Question: Which IC50 does the source give for `C[N+](C)(C)C[C@@H](CC(=O)[O-])NC(=O)C(F)(F)c1ccccc1` [Example S69, (R)-3-(2,2-difluoro-2-phenylacetamido)-4-(trimethylammonio)butanoate] here?
Answer: 100 to 1000 µM

Question: For `CCCCCCC(=O)C(=O)N[C@H](CC(=O)O)C[N+](C)(C)C` [Example S120, (R)-3-carboxy-N,N,N-trimethyl-2-(2-oxooctanamido)propan-1-aminium 2,2,2-trifluoroacetate], which IC50 is on record?
Answer: 1 to 10 µM

Question: `C[N+](C)(C)C[C@@H](CC(=O)[O-])NC(=O)c1ccc(OCC(F)(F)F)nc1` [Example S52, (R)-3-(6-(2,2,2-trifluoroethoxy)nicotinamido)-4-(trimethylammonio)butanoate] was tested. Which IC50 did it give?
Answer: 1000 to 2500 µM

Question: Which IC50 does the source give for `CCCCCc1ccc(NS(=O)(=O)N[C@H](CC(=O)O)C[N+](C)(C)C)cc1` [Example S91, (R)-3-(N-(4-pentylphenyl)sulfamoylamino)-4-(trimethylammonio)butanoate] here?
Answer: ≤ 1 µM

Question: With `C[N+](C)(C)C[C@@H](CC(=O)O)NC(=O)c1ccc(Br)s1` [Example S95, (R)-2-(5-bromothiophene-2-carboxamido)-3-carboxy-N,N,N-trimethyl-propan-1-aminium trifluoroacetate] as the molecule, how does the IC50 read?
Answer: 10 to 100 µM

Question: For `Cc1ccc(CCc2ccc(S(=O)(=O)N[C@H](CC(=O)O)C[N+](C)(C)C)s2)cc1` [Example S81, (R)-3-carboxy-N,N,N-trimethyl-2-(5-(4-methylphenethyl)thiophene-2-sulfonamido)propan-1-aminium 2,2,2-trifluoroacetate], which IC50 is on record?
Answer: 1 to 10 µM

Question: With `CCCCCCOc1cccc(OCCCCCN(C)S(=O)(=O)N[C@H](CC(=O)[O-])C[N+](C)(C)C)c1` [Example S109, (R)-3-(N-(5-(3-(hexyloxy)phenoxy)pentyl)-N-methylsulfamoylamino)-4-(trimethylammonio)butanoate] as the molecule, how does the IC50 read?
Answer: ≤ 1 µM

Question: `CCCCCc1ccc(C#Cc2ccc(C(=O)N[C@H](CC(=O)O)C[N+](C)(C)C)s2)cc1` [Example S96, (R)-3-carboxy-N,N,N-trimethyl-2-(5-((4-pentylphenyl)ethynyl)-thiophene-2-carboxamido)propan-1-aminium 2,2,2-trifluoroacetate] was tested. Which IC50 did it give?
Answer: ≤ 1 µM

Question: How did the IC50 turn out when `CCCCCCCCCCc1ccc(NS(=O)(=O)N[C@H](CC(=O)O)C[N+](C)(C)C)cc1` [Example S92, (R)-3-(N-(4-decylphenyl)sulfamoylamino)-4-(trimethylammonio)butanoate] was run?
Answer: ≤ 1 µM

Question: For `C[N+](C)(C)C[C@@H](CC(=O)[O-])NC(=O)Nc1cccc(-n2cccc2)c1` [Example S84, (R)-3-(3-(3-(1H-pyrrol-1-yl)phenyl)ureido)-4-(trimethylammonio)butanoate], which IC50 is on record?
Answer: 100 to 1000 µM

Question: How did the IC50 turn out when `C[N+](C)(C)C[C@@H](CC(=O)[O-])NC(=O)c1ccc(Oc2ccccc2)nc1` [Example S50, (R)-3-(6-phenoxynicotinamido)-4-(trimethylammonio)butanoate] was run?
Answer: 100 to 1000 µM

Question: `CC(C)(C)c1ccc(OCc2ccc(C(=O)N[C@H](CC(=O)[O-])C[N+](C)(C)C)o2)cc1` [Example S60, (R)-3-(5-((4-tert-butylphenoxy)methyl)furan-2-carboxamido)-4-(trimethyl-ammonio)butanoate] was tested. Which IC50 did it give?
Answer: 100 to 1000 µM

Question: How did the IC50 turn out when `C[N+](C)(C)C[C@@H](CC(=O)[O-])NC(=O)Nc1ccc(C(F)(F)F)cc1Cl` [Example S6, (R)-3-(3-(2-chloro-4-(trifluoromethyl)phenyl)ureido)-4-(trimethylammonio)-butanoate] was run?
Answer: 100 to 1000 µM

Question: For `C[N+](C)(C)C[C@@H](CC(=O)[O-])NC(=O)Nc1cccc(Oc2ccccc2)c1` [Example S38, (R)-3-(3-(3-Phenoxyphenyl)ureido)-4-(trimethylammonio)butanoate], which IC50 is on record?
Answer: 100 to 1000 µM

Question: `CCCCCc1ccc(C#Cc2ccc(S(=O)(=O)N[C@H](CC(=O)O)C[N+](C)(C)C)s2)cc1` [Example S82, (R)-3-carboxy-N,N,N-trimethyl-2-(5-((4-pentylphenyl)-ethynyl)thiophene-2-sulfonamido)propan-1-aminium 2,2,2-trifluoroacetate] was tested. Which IC50 did it give?
Answer: 1 to 10 µM

Question: For `C[N+](C)(C)C[C@@H](CC(=O)[O-])NC(=O)Nc1ccccc1Oc1ccccc1` [Example S100, (R)-3-carboxy-N,N,N-trimethyl-2-(3-(2-phenoxyphenyl)ureido)propan-1-aminium], which IC50 is on record?
Answer: > 2500 µM

Question: For `CCCCCc1ccc(CCc2ccc(NS(=O)(=O)N[C@H](CC(=O)[O-])C[N+](C)(C)C)cc2)cc1` [Example S108, (R)-3-(N-(4-(4-pentylphenethyl)phenyl)sulfamoylamino)-4-(trimethyl-ammonio)butanoate], which IC50 is on record?
Answer: ≤ 1 µM

Question: Which IC50 does the source give for `Cc1ccoc1C(=O)Nc1ccc(C(=O)N[C@H](CC(=O)[O-])C[N+](C)(C)C)cc1` [Example S5, (R)-3-(4-(3-methylfuran-2-carboxamido)benzamido)-4-(trimethylammonio)-butanoate] here?
Answer: 100 to 1000 µM

Question: Which IC50 does the source give for `CCCCCCOc1cccc(CCc2ccc(C(=O)N[C@H](CC(=O)O)C[N+](C)(C)C)o2)c1` [Example S125, (R)-3-carboxy-2-(5-(3-(hexyloxy)phenethyl)furan-2-carboxamido)-N,N,N-trimethylpropan-1-aminium 2,2,2-trifluoroacetate] here?
Answer: ≤ 1 µM

Question: Which IC50 does the source give for `CCCCCc1ccc(S(=O)(=O)N[C@H](CC(=O)O)C[N+](C)(C)C)cc1` [Example S23, (R)-3-(4-pentylphenylsulfonamido)-4-(trimethylammonio)butanoate 2,2,2-trifluoroacetate] here?
Answer: 1 to 10 µM

Question: `C[N+](C)(C)C[C@@H](CC(=O)O)NC(=O)Nc1ccc(OCc2ccccc2)cc1` [Example S12, (R)-3-(3-(4-(Benzyloxy)phenyl)ureido)-4-(trimethylammonio)butanoate acetate] was tested. Which IC50 did it give?
Answer: 100 to 1000 µM

Question: With `CC(=O)Nc1ccc(C(=O)N[C@H](CC(=O)[O-])C[N+](C)(C)C)cc1` [Example S53, (R)-3-(4-acetamidobenzamido)-4-(trimethylammonio)butanoate] as the molecule, how does the IC50 read?
Answer: > 2500 µM
